Data from US12552767B2, “3-heteroaryl pyrrolidine and piperidine orexin receptor agonists” (Merck Sharp & Dohme LLC, priority 2020, dated 2026).

Target: T1, human OX2R (Homo sapiens, UniProt O43614)
T1 construct: expressed in transfected cells; host or cells: CHO (Chinese hamster ovary) cells, grown under G418 selection
T1 sequence (O43614 1-444): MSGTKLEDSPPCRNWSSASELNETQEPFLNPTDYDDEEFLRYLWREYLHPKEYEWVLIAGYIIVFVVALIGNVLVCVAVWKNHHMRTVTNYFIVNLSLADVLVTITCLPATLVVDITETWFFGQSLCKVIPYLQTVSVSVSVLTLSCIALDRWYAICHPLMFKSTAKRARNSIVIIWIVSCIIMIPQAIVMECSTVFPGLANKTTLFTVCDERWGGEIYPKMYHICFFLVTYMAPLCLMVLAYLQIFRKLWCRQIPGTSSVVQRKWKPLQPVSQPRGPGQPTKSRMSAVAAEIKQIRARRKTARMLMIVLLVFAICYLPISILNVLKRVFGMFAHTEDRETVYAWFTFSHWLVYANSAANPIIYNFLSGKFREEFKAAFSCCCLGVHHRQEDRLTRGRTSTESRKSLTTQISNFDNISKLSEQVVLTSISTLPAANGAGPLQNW
Experiment: IP-One (IPOne) orexin receptor agonist assay in CHO cells expressing human OX2R
Assay type: cell-based
Settings: for EC50: CHO cells expressing human OX2R, IP-One IP-1 detection, 2 hours incubation, four parameter logistic fit, read-out: OX2R Potency, EC50; for % of reference agonist maximal effect: human OX2R, percentage of sample raw value/mean max effect (reference compound at 1 uM with 100% activity)
Text: The utility of the compounds in accordance with the present invention as orexin receptor OX1R and/or OX2R agonists may be readily determined without undue experimentation by methodology well known in the art. Both the OX1R and/or OX2R G-coupled protein receptors (GPCRs) couple through the Gαq signaling pathway, which ultimately promotes calcium mobilization via inositol triphosphate (IP3) production. The half-life of IP-3 is relatively short, being rapidly metabolized to inositol monophosphate (IP-1), which can be readily detected using a commercially available assay kit (IP-One; Cisbio; cat #621PAPEC) coupled with a cell line expressing the target receptor(s) of interest. The utility of the compounds in accordance with the present invention as orexin receptor OX1R and/or OX2R agonists may be determined utilizing this assay.
In a typical experiment, the OX1 and OX2 receptor agonist activity is determined in accordance with the following general experimental method. Chinese hamster ovary (CHO) cells expressing human OX1R and/or the human OX2R were grown in Iscove's modified DMEM containing glutaMAX™, 1% G418, 100 U/mL penicillin, 100 μg/mL streptomycin and 10% heat-inactivated qualified fetal bovine serum (FBS). The OX2R cells were seeded at 10,000 cells/well/50 μL and the OX1R cells were seeded at 20,000 cells/well/50 μL into 384-well white tissue culture plates (Greiner; cat #781080). All cell/media reagents were from GIBCO-Invitrogen Corp. The seeded cell plate(s) were incubated at 37° C. with 5% CO2 and 85% humidity for 20-24 hours. On the day of the assay, assay-ready compound plates were prepared using an acoustic liquid handler (ECHO; Labcyte), which dispensed sufficient volume of test compound stock (10 mM in DMSO) or 100% DMSO to prepare 10 point, ½-log dilutions in a final volume of 202.5 nL/well in all test wells of a 384-well diamond plate (Labcyte). Following completion of assay-ready plates, importantly, the next three steps were performed with minimal delay: 1) 20 μl of 1× stimulation buffer was added to the compound plate using a Multidrop Combi (small cassette, Thermo Fisher Scientific cat #24073290); 2) culture medium was removed from the cell plate using the Bluewasher plate washer (gentle spin; BlueCatBio); 3) 14 μl of compound/stimulation buffer mixture was added to the cell plate using a Bravo liquid handler (Agilent) prior to incubating cell plates at 37° C. with 5% CO2 and 85% humidity for 1 or 2 hours (OX1R and OX2R, respectively). During this incubation, IP-one detection reagents were prepared (38:1:1 lysis buffer:D2:AB-cryptate reagents). Six μL of mixed detection reagents were added to the cell plate using a Multidrop Combi (small cassette, Thermo Fisher Scientific cat #24073290) and incubated 60 minutes at room temperature in the dark. Fluorescence signal was detected using an Envision plate reader (Perkin Elmer) [LANCE/DELFIA Dual Enh (Em: APC 665; Ex: Cy5 620)].
For each compound, data were fit to a four parameter logistic fit (ActivityBase software) and the EC50 was reported as the inflection point of the resulting curve. Percent effect for each test compound was determined as the percentage of sample raw value/mean max effect, where the mean max effect was derived from the mean raw value of 32 control wells per assay plate (using Orexin A (cat #003-30) at 1 μM for human OX1R and a reference compound at 1 uM with 100% activity previously established by comparison to Orexin A for human OX2R). The intrinsic orexin receptor agonist activity of a compound which may be used in the present invention may be determined by these assays.

| Structure (SMILES) | EC50 [nM] | % of reference agonist maximal effect [%] |
| --- | --- | --- |
| O=C(OCC(F)(F)F)N1CCCC(c2ccn[nH]2)C1CO[C@H]1CC[C@@H](c2c(F)ccc(F)c2F)CC1 (relative stereo) [Example 31, 2,2,2-Trifluoroethyl 3-(1H-pyrazol-5-yl)-2-((((CIS)-4-(2,3,6-trifluorophenyl)cyclohexyl)-oxy)methyl)piperidine-1-carboxylate] | 7440 | 72.7 |
| CO[C@@H](C)COC(=O)N1CCC[C@H](c2cc[nH]n2)[C@@H]1CO[C@H]1CC[C@@H](c2ccccc2)CC1 [Example 119, (S)-2-methoxypropyl (CIS)-2-((((CIS)-4-phenylcyclohexyl)oxy)methyl)-3-(1H-pyrazol-3-yl)piperidine-1-carboxylate] | 9690 | 50.6 |
| COC(=O)N1CCC[C@H](c2n[nH]cc2Cl)[C@@H]1CO[C@H]1CC[C@@H](c2ccccc2)CC1 (single isomer, unassigned) [Example 45] | 79.4 | 100.2 |
| CCNC(=O)N1CCCC(c2nc[nH]n2)C1CO[C@H]1CC[C@@H](C(C)C)CC1 (single isomer, unassigned) [Example 62, N-ethyl-2-((((CIS)-4-isopropylcyclohexyl)oxy)methyl)-3-(1H-1,2,4-triazol-3-yl)piperidine-1-carboxamide] | > 10000 | 11.9 |
| CCNC(=O)N1CCCC(c2ccn[nH]2)C1CO[C@H]1CC[C@@H](c2c(F)ccc(F)c2F)CC1 (stereo partly shown) [Example 33] | 47.2 | 100.3 |
| O=C(C1CC1)N1CCC[C@H](c2cc[nH]n2)[C@@H]1CO[C@H]1CC[C@@H](c2ccccc2)CC1 (single isomer, unassigned) [Example 20, cyclopropyl((CIS)-2-((((CIS)-4-phenylcyclohexyl)oxy)methyl)-3-(1H-pyrazol-3-yl)piperidin-1-yl)methanone] | 682 | 97.4 |
| O=C(OCC(F)(F)F)N1CCC[C@H](c2cc[nH]n2)[C@@H]1CO[C@H]1CC[C@@H](c2ccccc2)CC1 (relative stereo) [Example 102, 2,2,2-trifluoroethyl (CIS)-2-((((CIS)-4-phenylcyclohexyl)oxy)methyl)-3-(1H-pyrazol-3-yl)piperidine-1-carboxylate] | 2930 | 40.7 |
| CCNC(=O)N1CCC[C@@H](c2n[nH]cc2C)[C@H]1CO[C@H]1CC[C@@H](c2cccc(F)c2)CC1 (single isomer, unassigned) [Example 12] | 414 | 100.0 |
| COC(=O)N1CCC[C@H](c2n[nH]cc2C(F)F)[C@@H]1CO[C@H]1CC[C@@H](c2ccccc2)CC1 (single isomer, unassigned) [Example 55] | 97.5 | 100.8 |
| O=C(C1CC1)N1CCC[C@H](c2cc[nH]n2)[C@@H]1CO[C@H]1CC[C@@H](c2ccccc2)CC1 (single isomer, unassigned) [Example 71, cyclopropyl((CIS)-2-((((CIS)-4-phenylcyclohexyl)oxy)methyl)-3-(1H-pyrazol-3-yl)piperidin-1-yl)methanone] | 457 | 82.9 |
| CCc1c[nH]nc1[C@H]1CCCN(C(=O)OC)[C@H]1CO[C@H]1CC[C@@H](c2ccccc2)CC1 (single isomer, unassigned) [Example 43] | 163 | 100.4 |
| O=C(OCC1CCC1)N1CCC[C@H](c2cc[nH]n2)[C@@H]1CO[C@H]1CC[C@@H](c2ccccc2)CC1 (relative stereo) [Example 104, cyclobutylmethyl (CIS)-2-((((CIS)-4-phenylcyclohexyl)oxy)methyl)-3-(1H-pyrazol-3-yl)piperidine-1-carboxylate] | 3850 | 65.1 |
| CC(C)[C@H]1CC[C@@H](OC[C@H]2[C@@H](c3cc[nH]n3)CCCN2C(=O)NC2CCCCC2)CC1 (relative stereo) [Example 124, (CIS)-N-cyclohexyl-2-((((CIS)-4-isopropylcyclohexyl)oxy)methyl)-3-(1H-pyrazol-3-yl)piperidine-1-carboxamide] | 8200 | 92.3 |
| COC(=O)N1CCC[C@H](c2n[nH]cc2Cl)[C@@H]1CO[C@H]1CC[C@@H](c2ccccc2Cl)CC1 (racemic) [Example 47, Methyl cis-3-(4-chloro-1H-pyrazol-3-yl)-2-((((CIS)-4-(2-chlorophenyl)cyclohexyl)oxy)methyl)piperidine-1-carboxylate] | 357 | 99.2 |
| CC(C)COC(=O)N1CCC[C@H](c2cc[nH]n2)[C@@H]1CO[C@H]1CC[C@@H](c2ccccc2)CC1 (relative stereo) [Example 105, isobutyl (CIS)-2-((((CIS)-4-phenylcyclohexyl)oxy)methyl)-3-(1H-pyrazol-3-yl)piperidine-1-carboxylate] | 3940 | 64.9 |
| CC(F)(F)COC(=O)N1CCC[C@H](c2cc[nH]n2)[C@@H]1CO[C@H]1CC[C@@H](c2ccccc2)CC1 (relative stereo) [Example 110, 2,2-difluoropropyl (CIS)-2-((((CIS)-4-phenylcyclohexyl)oxy)methyl)-3-(1H-pyrazol-3-yl)piperidine-1-carboxylate] | 6230 | 58.5 |
| COC(=O)N1C[C@@H](C)C[C@@H](c2ccn[nH]2)[C@@H]1CO[C@H]1CC[C@@H](c2ccccc2)CC1 (racemic) [Example 40, (+/−) methyl (2R,3R,5S)-5-methyl-2-((((CIS)-4-phenylcyclohexyl)oxy)methyl)-3-(1H-pyrazol-5-yl)piperidine-1-carboxylate] | 1630 | 95.8 |
| CCNC(=O)N1CC[C@H](c2cc[nH]n2)[C@@H]1CO[C@H]1CC[C@@H](c2ccccc2)CC1 (relative stereo) [Example 28, (CIS)-N-ethyl-2-((((CIS)-4-phenylcyclohexyl)ox)methyl)-3-(1H-pyrazol-3-yl)pyrrolidine-1-carboxamide] | 5960 | 22.9 |
| CCNC(=O)N1CCC[C@H](c2cc[nH]n2)[C@@H]1CO[C@H]1CC[C@@H](c2ccccc2)CC1 [Example 17, (2R,3S)-N-ethyl-2-((((CIS)-4-phenylcyclohexyl)oxy)methyl)-3-(1H-pyrazol-3-yl)piperidine-1-carboxamide] | 27.8 | 100.1 |
| O=C(CC1COC1)N1CCC[C@H](c2cc[nH]n2)[C@@H]1CO[C@H]1CC[C@@H](c2ccccc2)CC1 (relative stereo) [Example 74, 2-(oxetan-3-yl)-1-((CIS)-2-((((CIS)-4-phenylcyclohexyl)oxy)methyl)-3-(1H-pyrazol-3-yl)piperidin-1-yl)ethan-1-one] | 3280 | 94.3 |
